# In patent US10960088B2, “Macrocycles, cobalt and iron complexes of same, and methods of making and using same” (The Research Foundation for The State University of New York, priority 2013, dated 2021):
# Where “and” joins values, the source holds several entries; their conditions need not be identical. Equal entries are not always repeated. Entries after “also recorded” stand apart in the source; their conditions may differ.
# Legend:
# [1] = Redox potentials of iron complexes (no method given); assay type: physicochemical
# [2] = Kinetics of Co(II) oxidation and Co(III) reduction by UV-vis; assay type: physicochemical
# Description: Materials and methods. Instrumentation. Varian Inova 400 MHz and Inova 500 MHz NMR spectrometers were used to collect ^1H NMR spectra. ^13C NMR spectra were acquired using a Varian Mercury 300 MHz NMR spectrometer operating at 75 MHz. The measurements of magnetic susceptibility and CEST data were acquired on Varian Inova 500 MHz NMR spectrometer. Temperature of samples during ^1H NMR and CEST experiments was controlled with FTS Systems TC-84 Kinetics Air Jet Temperature Controller. A Thermo Scientific Orion 9826BN NMR micro pH electrode connected to a SympHony SB20 pH meter and the Orion 8115BNUWP Ross-ultra semi micro pH electrode connected to a Titrino 702 pH meter were used for pH measurements. ThermoFinnigan LCQ Advantage IonTrap LC/MS equipped with a Surveyor HPLC system was used to collect mass spectral data. Absorbance spectra of [Co(TPT)]^2+ and [Co(TPT)]^3+, together with the kinetic experiments for the reduction of Co(III) with L-ascorbic acid or sodium dithionite, and for the oxidation of Co(II) with oxygen or sodium peroxydisulfate were measured with a Beckman-Coulter DU 800 UV-vis Spectrophotometer equipped with a Peltier Temperature Controller. Kinetic experiments for the oxidation of Co(II) complex were performed after equilibration of the solutions with a mixture containing 5%, 10%, and 20% of oxygen in nitrogen followed by addition of [Co(TPT)]^2+ in the minimal volume of solvent. All experiments for the reduction of […] were performed under an inert atmosphere of argon. […]
# [3] = Exchange rate constants (omega plot)
# Procedure: Exchange rate constants were calculated following a previously reported procedure. Measurements of on-resonance (Mz) and off-resonance (Mo) were acquired at different presaturation pulse powers between 350-1000 Hz (8-24 μT) applied for 4 seconds at 37° C. The exchange rate constant (kex) is calculated from the x-intercept from the plot of Mz/(Mo−Mz) against 1/ω1^2 (ω1 in rad/s). The rate constant, kex, is converted into units of s^−1. Samples contained 10 mM Co^II complex, 20 mM HEPES pH 7.4, and 100 mM NaCl.
# The exchange rate constants were calculated by using a previously reported procedure. The magnetization of the on-resonance (Mz) and off-resonance (Mo) were acquired at different pre-saturation pulse powers between 350-1090 Hz applied for 4 seconds. To calculate the exchange rate constant (kb), the x-intercept (−1/kb^2) was obtained from the plot of Mz/(Mo−Mz) against 1/ω1^2 (ω1 in rad/s). Samples contained 16 mM [Co(TPT)]Cl2, 200 mM NaCl, and 40 mM MES or HEPES at pH 6.4-7.5. Measurements were carried out at 37° C.
# Cyclic voltammetry = assay type: physicochemical; details: versus NHE, in water, 1 M KCl
# Procedure: Cyclic voltammograms were obtained using a Princeton Applied Research Model 263A Potentiostat/Galvanostat and PowerSuite software program. CHI 104 Glassy Carbon Disk working electrode from CH Instruments, Inc. (Austin, Tex.) was used. Cyclic Voltammetry. […] (FIG. 6). The external ferrocyanide standard with Eo (Fe(III)/Fe(II))=303±10 mV vs. NHE contained 1.0 mM K4Fe(CN)6 and 1.00 M KCl under argon. The redox potential of the complex calculated based on a NHE reference using eq. 6: E^o(vs. NHE)=E^o(vs. Ag/AgCl)+167 mV, eq. 6 Determination of Magnetic Moment.
# [4] = Oxidation in air / reduction with dithionite followed by 1H NMR; assay type: physicochemical
# [5] = Effective magnetic moment in solution from magnetic susceptibility (NMR); assay type: physicochemical; details: aqueous solution
# Procedure: The effective magnetic moment (μeff) was calculated by using a previously known method. 5 mM Co^II complex and 5% t-butanol by volume was placed in a NMR insert while the outer NMR tube contained 5% by volume t-butanol in D2O. The μeff was calculated at 298 K (T) and monitored over a period of 72 hours using the following approach.
# The mass susceptibility of solute (χg) was calculated by obtaining the observed frequency shift of the reference (Δf) in Hz, the spectrometer frequency (f) in Hz, the mass of the substance per cm^3 of solution (m), and the mass susceptibility of solvent D2O (χ0=−0.6466×10^−6 cm^3/g). The last term is neglected due to the minimal contribution to mass susceptibility of solute. The molar susceptibility (χm) is the product of χg multiplied by the molecular weight of the Co^II complex.
# The effective magnetic moment was calculated by using a previously known method. In a typical experiment, oxygen-free solution of 8-20 mM [Co(TPT)]^2+ in deuterium oxide, pD 7.0, containing 5% tert-butanol by volume was placed in an NMR tube, while a reference solution of 5% tert-butanol (v/v) in deuterium oxide, pD 7.0, was placed into NMR tube insert. All solutions of [Co(TPT)]^2+ were purged with argon and kept in the absence of air. The effective magnetic moment (μeff) was calculated at 298 K (T) using the following equations 7-8. In these equations the mass susceptibility of solute (χg) was calculated by obtaining the observed frequency shift of the reference (Δf) in Hz, the spectrometer frequency (f) in Hz, the mass of the substance per cm^3 of the solution (m), and the mass susceptibility of deuterium oxide (χ0=−0.6466×10^−6 cm^3/g). The last term in eq. SI is neglected due to the minimal contribution to mass susceptibility of solute. The molar susceptibility (χm) is the product of χg multiplied by the molecular weight of the [Co(TPT)]Cl2 complex. Reported value of the effective magnetic moment was obtained by averaging of three independent experiments. χg=(−3Δf)/(4πfm)+χ0+[χ0(d0−ds)]/m eq. 7 μeff=2.84(χmT)^1/2 eq. 8
Structure (SMILES),redox potential [1] [mV],"second-order rate constant for reduction by dithionite ([2]; 200 mM NaCl, 40 mM HEPES, pH 7.0, 37° C.) [M⁻¹ s⁻¹]","second-order rate constant for oxidation by oxygen ([2]; 200 mM NaCl, 40.0 mM HEPES, pH 7.1, 25° C.) [M⁻¹ s⁻¹]",rate constant for oxidation of the Co(II) complex ([2]; ambient pressures of oxygen) [s⁻¹],rate constant for reduction of Co(III) complex ([2]; excess dithionate) [s⁻¹],"rate constant for oxidation, extrapolated ([2]; hypoxic conditions, 10 mm Hg, 17 μM O2) [s⁻¹]","rate constant for oxidation, extrapolated ([2]; oxygen 100 mm Hg (0.17 mM O2), arterial blood) [s⁻¹]","rate constant for oxidation of the Co(II) complex ([2]; partial pressures of oxygen of 5%, in 1/s)","rate constant for proton exchange ([3]; pH 6.4, 37° C.)","rate constant for proton exchange ([3]; pH 6.9, 37° C.)","rate constant for proton exchange ([3]; pH 7.5, 37° C.)",reduction potential (Cyclic voltammetry),stability towards oxidation in air (in words) [4],effective magnetic moment [5] [BM]
O=C([O-])CN1CCN(CC(=O)[O-])CCN(CC(=O)[O-])CC1.[Fe+3] [Fe(NOTA)],195,–,–,–,–,–,–,–,–,–,–,–,–,–
[Co+2].c1cc(CN2CCN(Cc3cc[nH]n3)CCN(Cc3cc[nH]n3)CC2)n[nH]1 [[Co(TPT)]^2+],–,0.24,0.43,5e-06,4e-05,7.3e-06,7.3e-05,2×10^−6,"6,200 s^−1","9,200 s^−1","12,400 s^−1",−107 mV and −107±11 mV,readily oxidize; also recorded: oxidizes in air to the Co(III) form,5.7±0.2
[Fe+2].c1cc(CN2CCN(Cc3cc[nH]n3)CCN(Cc3cc[nH]n3)CC2)n[nH]1 [[Fe(TPT)]^2+],–,–,–,–,–,–,–,–,–,–,–,–,readily oxidize,–
